Read-outs that look alike come from different tables or passages of the source.
Assays:
C. difficile = test: Minimum bactericidal concentration (MBC) against C. difficile; format: cell-based, Clostridium difficile; settings: Clostridioides difficile, CD strain VPI 10463; BHI; Table 19 formulations; read-out: MBC
Fusobacterium = test: MIC by microdilution in Brucella broth against Fusobacterium; format: cell-based, Fusobacterium spp.; settings: read-out: MIC
Escherichia coli strains = test: MIC by microdilution in Mueller-Hinton broth against Escherichia coli strains; format: cell-based; settings: Escherichia coli, Mueller-Hinton broth, read-out: MIC
Enterococcus faecalis = test: MIC by microdilution in Mueller-Hinton broth against Enterococcus faecalis strains; format: cell-based; settings: Enterococcus faecalis
CD strains = test: In vitro activity of CFM + additional antimicrobial agent against CD (MIC alone/combination, FIC, ΣFIC); format: cell-based, Clostridium difficile; settings: CFM + MET; for MIC: Clostridioides difficile, read-out: MIC alone
C. perfringens MH310 = test: microbe, parasite or virus in culture; format: cell-based; settings: Clostridium perfringens, MH310, C. perfringens MH310
Lactobacillus strains = test: MIC against Lactobacillus strains; format: cell-based, Lactobacillus spp.; settings: for MIC: broth microdilution, BHI with 0.02% Tween 80, pH 6.0, read-out: MIC
[1] = system: Clostridium difficile (CD) strains; test: microbe, parasite or virus in culture; format: cell-based; settings: Clostridioides difficile; for MIC: BAA1805, CD strain BAA1805 (hyper-virulent strain BI/NAP1/027)
[2] = system: Lachnospiraceae and related bacterial strains; test: MIC against Lachnospiraceae and related bacterial strains; format: cell-based, Lachnospiraceae spp.; settings: for MIC: broth microdilution, brucella broth, read-out: MIC
C. difficile VPI10463 = settings: Clostridioides difficile, −fecal extract, C. difficile VPI10463
[3] = system: Staphylococcus aureus strains; test: MIC by microdilution in Mueller-Hinton broth against Staphylococcus aureus strains; format: cell-based; settings: Staphylococcus aureus
Bifidobacterium strains = test: MIC by microdilution in BHI broth against Bifidobacterium strains; format: cell-based, Bifidobacterium spp.; settings: BHI broth, read-out: MIC
[4] = Test 14, CD strain BAA1805 (BI/NAP1/027)

Cc1ncc([N+](=O)[O-])n1CCO [MET, metronidazole]
0.015: FIC (CD strains; [4])
4 µg/mL: MIC combination (CD strains; Test 15, CD strain BAA1805 (BI/NAP1/027)) | MIC combination (CD strains; Test 17, CD strain BAA1805 (BI/NAP1/027)) | MIC90 ([1]; n = 37, read-out: MIC90)
2 µg/mL: MIC (CD strains; Test 8, CD strain NR32885) | MIC (CD strains; Test 19, CD strain NR32888) | MIC (CD strains; Test 21, CD strain NR32888) | MIC (C. perfringens MH310; BB) | MIC (Bifidobacterium strains; Bifidobacterium longum HM-845) | MIC (Bifidobacterium strains; Bifidobacterium longum HM-846)
susceptible: susceptibility of Lachnospiraceae and related organisms (in words) ([2]; most of the members of this family)
0.25: FIC (CD strains; Test 10, CD strain NR32885) | FIC (CD strains; Test 12, CD strain NR32885) | FIC (CD strains; Test 21, CD strain NR32888)
8 µg/mL: MIC ([1]; BB)
32 µg/mL: MIC (CD strains; BAA1805, Test 15, CD strain BAA1805 (BI/NAP1/027)) | MIC (CD strains; BAA1805, Test 17, CD strain BAA1805 (BI/NAP1/027))
essentially inactive: in vitro activity against Lactobacillus spp. (in words) (Lactobacillus strains; ten strains tested)
> 32 µg/mL: MIC (Escherichia coli strains; Escherichia coli strain NR 6) | MIC (Escherichia coli strains; Escherichia coli strain NR 8) | MIC (Escherichia coli strains; Escherichia coli strain NR 96) | MIC (Escherichia coli strains; Escherichia coli strain NR 104) | MIC (Escherichia coli strains; Escherichia coli strain NR 17626) | MIC (Escherichia coli strains; Escherichia coli strain NR 17627) | MIC (Escherichia coli strains; Escherichia coli strain NR 17633) | MIC (Escherichia coli strains; Escherichia coli strain NR 17647) | MIC (Escherichia coli strains; Escherichia coli strain NR 17650) | MIC (Escherichia coli strains; Escherichia coli strain NR 17661) | MIC (Enterococcus faecalis; E. faecalis NR 31884, read-out: MIC) | MIC (Enterococcus faecalis; E. faecalis NR 31885, read-out: MIC) | MIC (Enterococcus faecalis; E. faecalis NR 31886, read-out: MIC) | MIC (Enterococcus faecalis; E. faecalis NR 31887, read-out: MIC) | MIC (Enterococcus faecalis; E. faecalis NR 31888, read-out: MIC) | MIC (Lactobacillus strains; Lactobacillus, pH 6, Lactobacillus jhonsonii HM-643) | MIC (Lactobacillus strains; Lactobacillus, pH 6, Lactobacillus sp. HM-228) | MIC (Lactobacillus strains; Lactobacillus, pH 6, Lactobacillus sp. HM-478) | MIC (Lactobacillus strains; pH 6, Lactobacillus crispatus HM-637) | MIC (Lactobacillus strains; pH 6, Lactobacillus gasseri HM-104) | MIC (Lactobacillus strains; pH 6, Lactobacillus iners HM-126) | MIC (Lactobacillus strains; pH 6, Lactobacillus jensenii HM-105) | MIC (Lactobacillus strains; pH 6, Lactobacillus reuteri HM-102) | MIC (Lactobacillus strains; pH 6, Lactobacillus rhamnosus HM-106) | MIC (Lactobacillus strains; pH 6, Lactobacillus vaginalis HM-405) | MIC ([3]; Staphylococcus aureus strain NR 10129, read-out: MIC) | MIC ([3]; Staphylococcus aureus strain NR 10186, read-out: MIC) | MIC ([3]; Staphylococcus aureus strain NR 10187, read-out: MIC) | MIC ([3]; Staphylococcus aureus strain NR 10188, read-out: MIC) | MIC ([3]; Staphylococcus aureus strain NR 10189, read-out: MIC) | MIC ([3]; Staphylococcus aureus strain NR 10191, read-out: MIC) | MIC ([3]; Staphylococcus aureus strain NR 10192, read-out: MIC) | MIC ([3]; Staphylococcus aureus strain NR 10193, read-out: MIC) | MIC ([3]; Staphylococcus aureus strain NR 10194, read-out: MIC) | MIC ([3]; Staphylococcus aureus strain NR 10198, read-out: MIC) | MIC (Bifidobacterium strains; Bifidobacterium adolescentis HM-633) | MIC (Bifidobacterium strains; Bifidobacterium breve HM-411) | MIC (Bifidobacterium strains; Bifidobacterium breve HM-412) | MIC (Bifidobacterium strains; Bifidobacterium breve HM-856) | MIC (Bifidobacterium strains; Bifidobacterium, Bifidobacterium sp. HM-30)
0.062 µg/mL: MIC (Fusobacterium; F. nucleatum HM-75, Brucella broth) | MIC combination (CD strains; Test 3, CD strain VPI 10463) | MIC combination (CD strains; Test 4, CD strain VPI 10463) | MIC ([2]; Lachnospiraceae sp. HM-153) | MIC (C. difficile VPI10463; VPI10463, Expt. 1) | MIC (C. difficile VPI10463; VPI10463, Expt. 2)
0.5: FIC (CD strains; Test 3, CD strain VPI 10463) | FIC (CD strains; Test 4, CD strain VPI 10463)
0.062: FIC (CD strains; Test 19, CD strain NR32888)
0.25 µg/mL: MBC (C. difficile) | MIC (Fusobacterium; F. nucleatum HM-997, Brucella broth) | MIC combination (CD strains; Test 8, CD strain NR32885) | MIC combination (CD strains; Test 10, CD strain NR32885) | MIC combination (CD strains; Test 12, CD strain NR32885) | MIC combination (CD strains; [4]) | MIC ([2]; Clostridiales bacterium, Clostridiales bacterium HM-84) | MIC ([2]; Lachnospiraceae sp. HM-7) | MIC ([2]; Lachnospiraceae sp. HM-150) | MIC ([2]; Lachnospiraceae sp. HM-157)
0.5 µg/mL: MIC (Fusobacterium; F. nucleatum HM-996, Brucella broth) | MIC (Fusobacterium; Fusobacterium, Fusobacterium sp. HM 57, Brucella broth) | MIC combination (CD strains; Test 21, CD strain NR32888) | MIC ([2]; Lachnospiraceae sp. HM-480) | MIC ([2]; Lachnospiraceae sp. HM-558) | MIC ([2]; Lachnospiraceae sp. HM-768) | MIC ([2]; Peptostreptococcaceae sp. HM-766) | MIC (Bifidobacterium strains; Bifidobacterium breve HM-1120)
16 µg/mL: MIC (CD strains; BAA1805, Test 14, CD strain BAA1805 (BI/NAP1/027)) | MIC ([2]; Lachnospiraceae sp. HM-868) | MIC (Bifidobacterium strains; Bifidobacterium, Bifidobacterium sp. HM-868)
1 µg/mL: MIC (CD strains; Test 10, CD strain NR32885) | MIC (CD strains; Test 12, CD strain NR32885) | MIC (C. perfringens MH310; BHI) | MIC ([1]; BHI) | MIC50 ([1]; n = 37, read-out: MIC50) | MIC ([2]; Eubacterium sp. HM-178) | MIC (Bifidobacterium strains; Bifidobacterium longum HM-847)
≤ 0.031 µg/mL: MIC (Fusobacterium; F. nucleatum HM-993, Brucella broth) | MIC ([2]; Clostridiales bacterium, Clostridiales bacterium HM-182)
0.031 to 0.5 µg/mL: MIC (Fusobacterium; Fusobacterium, Fusobacterium spp. strains of Table 12 (all strains))

Source: patent US9849130B2 (KamTek, Inc., priority 2014, dated 2017)
